Reference: paper PMC4311633, “Effects of RAMEA-complexed polyunsaturated fatty acids on the response of human dendritic cells to inflammatory signals” (Beilstein Journal of Organic Chemistry, 2014)

Assays:
[1] = Solubility in 20% randomly methylated CD solutions and complexation efficiency, cholesterol; format: physicochemical; details: for Solubilization of cholesterol: aqueous solution of 20% CD vs distilled water; for Complexation efficiency for Cholesterol: calculated from solubility data in 20% CD solution, 24 h, rt
[2] = Solubility in 20% randomly methylated CD solutions and complexation efficiency, EPA; format: physicochemical; details: calculated from solubility data in 20% CD solution, 24 h, rt
Method: (§1) The complexation efficiency calculated from the solubility data characterize the affinity of the various methylated CDs toward the lipids studied (Table 1). The complex association constants were not calculated because the intrinsic solubility in water is so low that it cannot be determined with a precision sufficient for the calculations.
(§2) The solubility of fatty acids in CD solutions was determined by adding PUFAs to the aqueous solutions at 20% RAMEA, RAMEB or RAMEG, respectively, stirring for 24 h at rt and then analyzed the filtered saturated solutions by HPLC using Hypersil ODS column (4 × 125 mm, particle size 5 μm) with guard column, mobile phase: acetonitrile/water 75:25 with 0.15% concentrated phosphoric acid, 2.0 mL/min flow rate, at 40 °C and UV detection at 210 nm.

[3] = Solubility in 20% randomly methylated CD solutions and complexation efficiency, ALA; format: physicochemical; details: calculated from solubility data in 20% CD solution, 24 h, rt
Method: as §1, §2

[4] = Solubilization of n−3 PUFAs in aqueous methylated CD solutions; format: physicochemical; details: aqueous solution of 20% CD vs distilled water
Method: Cyclodextrins (CDs) are efficient solubilizers of lipids. […] The solubilizing effect of RAMEA in the case of n−3 PUFAs seems to be high enough for using it as a solubilizer without the risk of interaction with cholesterol-rich lipid rafts in the cell membrane.
as §2

[5] = Solubility in 20% randomly methylated CD solutions and complexation efficiency, DHA; format: physicochemical; details: calculated from solubility data in 20% CD solution, 24 h, rt
Method: as §1, §2

[6] = test system: CD1a cell surface protein in moDC; test: CD1a cell surface expression in moDC by flow cytometry; format: cell-based, human; details: 20 µM/mL, resting, LPS- or Poly(I:C)-activated moDC; for Expression of CD1a protein on the surface of moDC: RAMEA-complexed PUFA compared with DMSO/ethanol form
Method: (§3) Peripheral blood mononuclear cells (PBMC) were separated from buffy coats by Ficoll gradient centrifugation (Amersham Biosciences, Uppsala, Sweden). Monocytes were isolated by positive selection using magnetic cell separation with anti-CD14-conjugated microbeads (Miltenyi Biotech, Bergisch Gladbach, Germany). […] The purified cells were cultured at a density of 10^6 cells/mL in serum free AIMV medium supplemented with 80 ng/mL granulocyte-macrophage colony stimulating factor (GM-CSF) purchased from Gentaur and 50 ng/mL IL-4 from Peprotech.
(§4) On day 0 and day 2 of the in vitro moDC differentiation process the cultures were supplemented with GM-CSF and IL-4 and were treated with 20 µM/mL n−3 PUFAs. On day 5 the fully differentiated cells were activated by 500 ng/mL bacterial lipopolysaccharide (LPS) (Sigma Aldrich) or by 500 ng/mL Poly(I:C) (InvivoGen, San Diego, CA, USA) or were left untreated. The negative controls were treated by DMSO or by 20 µM/mL RAMEA. The positive controls were stimulated by LPS or Poly(I:C) in the absence of PUFAs.
Phenotyping of moDC was performed by flow cytometry using anti-CD83-PE and anti-CD1a-FITC specific antibodes from BioLegend at the protein level (San Diego, CA, USA). Fluorescence intensities were measured with FACSCalibur (BD Biosciences). Data analysis was performed with the FlowJo software (Tree Star, Ashland, OR, USA).

[7] = test system: GPR120 receptor expression in moDC; test: GPR120 expression in moDC by Q-PCR; format: cell-based, human; details: 20 µM/mL; LPS-activated moDC; Q-PCR normalized to cyclophilin
Method: as §3, §4
GPR120 expression levels were measured by real-time quantitative PCR (Q-PCR). […] Q-PCR was performed using the ABI StepOne Real Time PCR System (Applied Biosystems) and cycle threshold values were determined by using the StepOne v2.1 Software (Applied Biosystems).

randomly methylated β-cyclodextrin [RAMEB]
Solubilization of cholesterol [1]: cholesterol could be dissolved by RAMEB only | Complexation efficiency for Cholesterol [1]: 0.08 | Complexation efficiency for EPA [2]: 0.41 | Complexation efficiency for ALA [3]: 0.43 | Solubilization of n−3 PUFAs [4]: solubilized | Complexation efficiency for DHA [5]: 0.35

CC/C=C\C/C=C\C/C=C\CCCCCCCC(=O)O [ALA, α-linoleic acid]
Expression of CD1a protein on the surface of moDC [6]: solubilization method did not influence the effects

randomly methylated α-cyclodextrin [RAMEA]
Solubilization of cholesterol [1]: Neither RAMEA nor RAMEG could solubilize cholesterol to a measurable extent | Complexation efficiency for Cholesterol [1]: <0.001 | Complexation efficiency for EPA [2]: 0.21 | Complexation efficiency for ALA [3]: 0.25 | Solubilization of n−3 PUFAs [4]: solubilized | Complexation efficiency for DHA [5]: 0.10

CC/C=C\C/C=C\C/C=C\C/C=C\C/C=C\C/C=C\CCC(=O)O [DHA, docosahexaenoic acid]
Proportion of inflammatory CD1a+ cells ([6]; PUFA dissolved in DMSO/ethanol): more efficient in decreasing the proportion of inflammatory CD1a^+ cells, than ALA or EPA | Expression of CD1a protein on the surface of moDC [6]: solubilization method did not influence the effects | GPR120 receptor expression [7]: induced preferentially by DHA
